Data reported in patent US5183883A, “Conjugate of adriamycin and cyclodextrin” (Mercian Corporation, priority 1990, dated 1993).
Converted amounts (≈) assume the structure as drawn. Structures can show the parent of a compound that is named as a salt. Where two headings read alike, the source gives them in different places.

How the values were obtained:
L1210 leukemia = assay: Test of anti-cancer activity to L1210 leukemia mice; type: in vivo, CDF1 mice; conditions: i.p., 10 days; for Survived mice/test mice: observed 60 days
Protocol: 1×10^5 L1210 leukemia cells were inoculated into CDF1 mice intraperitoneally, and 24 hours later, the aqueous solution of the compound of this invention was intraperitoneally administered successively over 10 days. Test groups, each consisting of 6 mice, were fed and observed for 60 days, and percent prolongation of life (T/C; %) was found.

mouse leukemia cells = assay: Cytotoxicity test; conditions: for Cytotoxicity, IC50: 48 hours, 37° C., RPMI1640 with 10% horse serum, trypan blue
Protocol: 5×10^4 cells/ml of mouse leukemia cells were inoculated in a RPMI1640 culture medium containing 10% horse serum, and the compound of the present invention was added to this such that the final concentration became 0.001 to 10.0 μg/ml. Cultivation was conducted in a carbon dioxide gas incubator (air containing 5% carbon dioxide gas) at 37° C. for 48 hours.

[1] = intravenous injection in mice; Collection of Medicaments in Japan, 1989; cited from earlier work
[2] = Sustained release test (adriamycin liberated in phosphoric acid buffer physiological saline); type: physicochemical; conditions: 1 mg in 0.0067 M phosphoric acid buffer physiological saline, initial pH=7.36-7.37, 37° C., HPLC
Protocol: One milligram of each of the adriamycin derivatives obtained in Examples 1, 2, 3, 4, 5 and 6 to be described later was dissolved in 0.0067 M phosphoric acid buffer physiological saline solution made by Bioproducts, Inc. (initial pH=7.36-7.37), and the solution was kept at 37° C. The amount of adriamycin liberated in the solution was analyzed by HPLC [column=YMC Pack A-312 S-5 120A ODS; mobile phase=0.05M ammonium formate buffer (pH=4.0):- acetonitrile=7:4, flow rate=1 ml/min; measuring wavelength=254 nm; retention time of adriamycin under the present conditions=3.8 minutes].
Consequently, a 50 % released time of adriamycin from the adriamycin derivatives is as follows, and sustained release was confirmed.

Toxicity test LD50 = type: in vivo; conditions: mice, intravenously administered once
Source text: LD50 given when the adriamycin derivatives of this invention were intravenously administered once in mice is as follows.

[3] = 9.77 mg/kg/day (2.5 as adriamycin)
[4] = 19.53 mg/kg/day (5.0 as adriamycin)
[5] = 39.06 mg/kg/day (10.0 as adriamycin)
[6] = 78.13 mg/kg/day (20.0 as adriamycin)
[7] = 156.25 mg/kg/day (40.0 as adriamycin)
[8] = 9.54 mg/kg/day (2.5 as adriamycin)
[9] = 13.36 mg/kg/day (3.5 as adriamycin)
[10] = 19.08 mg/kg/day (5.0 as adriamycin)
[11] = 26.72 mg/kg/day (7.0 as adriamycin)
[12] = 38.17 mg/kg/day (10.0 as adriamycin)

COc1cccc2c1C(=O)c1c(O)c3c(c(O)c1C2=O)C[C@@](O)(C(=O)CO)C[C@@H]3O[C@H]1C[C@H](N)[C@H](O)[C@H](C)O1 [Adriamycin hydrochloride, reference compound]
Anti-cancer activity, T/C (%) (L1210 leukemia; 0.31 mg/kg/day): 170%
Survived mice/test mice (L1210 leukemia; 0.31 mg/kg/day): 0/6
Anti-cancer activity, T/C (%) (L1210 leukemia; 0.63 mg/kg/day): 218%
Survived mice/test mice (L1210 leukemia; 0.63 mg/kg/day): 0/6
Anti-cancer activity, T/C (%) (L1210 leukemia; 1.25 mg/kg/day): 255%
Survived mice/test mice (L1210 leukemia; 1.25 mg/kg/day): 0/6
Anti-cancer activity, T/C (%) (L1210 leukemia; 2.50 mg/kg/day): 177%
Survived mice/test mice (L1210 leukemia; 2.50 mg/kg/day): 0/6
Anti-cancer activity, T/C (%) (L1210 leukemia; 5.00 mg/kg/day): 132%
Survived mice/test mice (L1210 leukemia; 5.00 mg/kg/day): 0/6

COc1cccc2c1C(=O)c1c(O)c3c(c(O)c1C2=O)C[C@@](O)(C(=O)CO)C[C@@H]3O[C@H]1C[C@H](N)[C@H](O)[C@H](C)O1 [Adriamycin, adriamycin]
IC50 (mouse leukemia cells; Mus musculus, 48 h, read-out: Cytotoxicity, IC50): 0.058 µg/mL (≈ 0.107 µM)
LD50 [1]: 9.8 mg/kg

COc1cccc2c1C(=O)c1c(O)c3c(c(O)c1C2=O)C[C@@](O)(C(=O)COC(=O)C1CCCCC1C(=O)OC[C@H]1O[C@@H]2O[C@H]4[C@H](O)[C@@H](O)[C@@H](O[C@H]5[C@H](O)[C@@H](O)[C@@H](O[C@H]6[C@H](O)[C@@H](O)[C@@H](O[C@H]7[C@H](O)[C@@H](O)[C@@H](O[C@H]8[C@H](O)[C@@H](O)[C@@H](O[C@H]9[C@H](O)[C@@H](O)[C@@H](O[C@H]%10[C@H](O)[C@@H](O)[C@@H](O[C@H]1[C@H](O)[C@H]2O)O[C@@H]%10CO)O[C@@H]9CO)O[C@@H]8CO)O[C@@H]7CO)O[C@@H]6CO)O[C@@H]5CO)O[C@@H]4CO)C[C@@H]3O[C@H]1C[C@H](N)[C@H](O)[C@H](C)O1 (some centres unmarked) [Example 6-ACC, adriamycin (14-position)-ciscyclohexanedicarboxylic acid-(6-position) γ-cyclodextrin conjugate]
50 % released time of adriamycin from the adriamycin derivatives [2]: > 70 h
Cytotoxicity, IC50 (mouse leukemia cells): 2.07 µg/mL

COc1cccc2c1C(=O)c1c(O)c3c(c(O)c1C2=O)C[C@@](O)(C(=O)COC(=O)c1cc2ccccc2cc1C(=O)OC[C@H]1O[C@@H]2O[C@H]4[C@H](O)[C@@H](O)[C@@H](O[C@H]5[C@H](O)[C@@H](O)[C@@H](O[C@H]6[C@H](O)[C@@H](O)[C@@H](O[C@H]7[C@H](O)[C@@H](O)[C@@H](O[C@H]8[C@H](O)[C@@H](O)[C@@H](O[C@H]9[C@H](O)[C@@H](O)[C@@H](O[C@H]%10[C@H](O)[C@@H](O)[C@@H](O[C@H]1[C@H](O)[C@H]2O)O[C@@H]%10CO)O[C@@H]9CO)O[C@@H]8CO)O[C@@H]7CO)O[C@@H]6CO)O[C@@H]5CO)O[C@@H]4CO)C[C@@H]3O[C@H]1C[C@H](N)[C@H](O)[C@H](C)O1 [Example 6-ANC, adriamycin (14-position)-naphthalenedicarboxylic acid-(6-position) γ-cyclodextrin conjugate]
50 % released time of adriamycin from the adriamycin derivatives [2]: about 65 hours
Cytotoxicity, IC50 (mouse leukemia cells): 0.79 µg/mL

COc1cccc2c1C(=O)c1c(O)c3c(c(O)c1C2=O)C[C@@](O)(C(=O)COC(=O)c1ccccc1C(=O)OC[C@H]1O[C@@H]2O[C@H]4[C@H](O)[C@@H](O)[C@@H](O[C@H]5[C@H](O)[C@@H](O)[C@@H](O[C@H]6[C@H](O)[C@@H](O)[C@@H](O[C@H]7[C@H](O)[C@@H](O)[C@@H](O[C@H]8[C@H](O)[C@@H](O)[C@@H](O[C@H]9[C@H](O)[C@@H](O)[C@@H](O[C@H]%10[C@H](O)[C@@H](O)[C@@H](O[C@H]1[C@H](O)[C@H]2O)O[C@@H]%10CO)O[C@@H]9CO)O[C@@H]8CO)O[C@@H]7CO)O[C@@H]6CO)O[C@@H]5CO)O[C@@H]4CO)C[C@@H]3O[C@H]1C[C@H](N)[C@H](O)[C@H](C)O1 [Example 6-APC, adriamycin (14-position)-phthalic acid-(6-position) γ-cyclodextrin conjugate]
50 % released time of adriamycin from the adriamycin derivatives [2]: about 45 hours
Cytotoxicity, IC50 (mouse leukemia cells): 0.49 µg/mL

COc1cccc2c1C(=O)c1c(O)c3c(c(O)c1C2=O)C[C@@](O)(C(=O)COC(=O)CCC(=O)OC[C@H]1O[C@@H]2O[C@H]4[C@H](O)[C@@H](O)[C@@H](O[C@H]5[C@H](O)[C@@H](O)[C@@H](O[C@H]6[C@H](O)[C@@H](O)[C@@H](O[C@H]7[C@H](O)[C@@H](O)[C@@H](O[C@H]8[C@H](O)[C@@H](O)[C@@H](O[C@H]9[C@H](O)[C@@H](O)[C@@H](O[C@H]%10[C@H](O)[C@@H](O)[C@@H](O[C@H]1[C@H](O)[C@H]2O)O[C@@H]%10CO)O[C@@H]9CO)O[C@@H]8CO)O[C@@H]7CO)O[C@@H]6CO)O[C@@H]5CO)O[C@@H]4CO)C[C@@H]3O[C@H]1C[C@H](N)[C@H](O)[C@H](C)O1 [Example 6-ASC, adriamycin (14-position)-succinic acid (6-position) γ-cyclodextrin conjugate]
50 % released time of adriamycin from the adriamycin derivatives [2]: about 3 hours
Cytotoxicity, IC50 (mouse leukemia cells): 0.21 µg/mL

adriamycin-phthalic acid-γ-cyclodextrin conjugate [APC]
50 % released time of adriamycin from the adriamycin derivatives [2]: about 20 hours
Cytotoxicity, IC50 (mouse leukemia cells): 0.32 µg/mL
Anti-cancer activity, T/C (%) (L1210 leukemia; [3]): 164%
Survived mice/test mice (L1210 leukemia; [3]): 0/6
Anti-cancer activity, T/C (%) (L1210 leukemia; [4]): 234%
Survived mice/test mice (L1210 leukemia; [4]): 0/6
Anti-cancer activity, T/C (%) (L1210 leukemia; [5]): 468%
Survived mice/test mice (L1210 leukemia; [5]): 2/6
Anti-cancer activity, T/C (%) (L1210 leukemia; [6]): 475%
Survived mice/test mice (L1210 leukemia; [6]): 0/6
Anti-cancer activity, T/C (%) (L1210 leukemia; [7]): 143%
Survived mice/test mice (L1210 leukemia; [7]): 0/6
LD50 (Toxicity test LD50; as derivative): 555 mg/kg
LD50 as adriamycin (Toxicity test LD50; calculated as adriamycin): 147 mg/kg as adriamycin

adriamycin-succinic acid-γ-cyclodextrin conjugate [ASC]
Anti-cancer activity, T/C (%) (L1210 leukemia; [8]): 207%
Survived mice/test mice (L1210 leukemia; [8]): 0/6
Anti-cancer activity, T/C (%) (L1210 leukemia; [9]): 545%
Survived mice/test mice (L1210 leukemia; [9]): 3/6
Anti-cancer activity, T/C (%) (L1210 leukemia; [10]): 552%
Survived mice/test mice (L1210 leukemia; [10]): 3/6
Anti-cancer activity, T/C (%) (L1210 leukemia; [11]): 193%
Survived mice/test mice (L1210 leukemia; [11]): 0/6
Anti-cancer activity, T/C (%) (L1210 leukemia; [12]): 159%
Survived mice/test mice (L1210 leukemia; [12]): 0/6
